Measured values as given in patent EP0855181A2 (priority 1997, dated 1998).
Like-named read-outs stand apart in the source and are kept apart here.

Legend:
Human neutrophils (PMN) = test system: Human neutrophils (PMN)
Description: Human neutrophils (PMN) are isolated from EDTA-anticoagulated blood by Ficoll-density-centrifugation and by dextran sedimenation as described by Böyum, A. in Scand. J. Clin. Lab. Invest. 21(Suppl. 97):77-89, 1968.Variable concentrations of glycine (4.0 mM, 0.4 mM and 0.04 mM in a volume of 50 µl) and as a control 50 µl PBS are incubated with human neutrophils (2x10^7 cells/ml in a volume of 500 µl in Ca/Mg (1/0.5mM) and 0.25mM luminol) for 20 min at 37°C and stimulation is subsequently carried out with fMLP (N-formyl-methionyl-leucyl-phenylalanine, 10^-5M), NaF (20mM) or PMA (10 ng), each in a volume of 50µl, for 30 min at 37°C. fMLP is a receptor-mediated stimulus, NaF is a G-protein-mediated activator of cells and PMA activates the protein kinase C. As a control neutrophils are incubated with the variable glycine concentrations without subsequent stimulation. Respiratory burst is measured by chemiluminescence response of oxygen radicals essentially as described in Immunology, 1992, 76, 86-94.

Neutrophils (PMNs) = test system: Neutrophils (PMNs)
Description: Neutrophils (PMNs, isolated as described in example 2, in a concentration of 2x10^7/ml in a volume of 500µl + 50 µl 1mM Ca/0.5mM Mg) are preincubated with glycine (0.0004mM, 0.004mM, 0.04mM, 0.4mM and 4mM in a volume of 50µl) for 20 or 30 minutes at 37°C. Subsequently they are treated with cytochalasin (50 µl, 10^-5M) and stimulated with 50 µl fMLP (10^-5M), NaF (20mM), or primed with 50µl GM-CSF (10ng) and subsequently stimulated with 50µl NaF (20mM), fMLP (10^-5M) or Ca-ionophore (5µM) and incubated for a further 20 minutes at 37°C. Leukotrienes are measured by HPLC as described in Immunology 67:401-407.

[1] = test system: Peripheral mononuclear cells
Description: Peripheral mononuclear cells (as in example 2 but in a concentration of 10^6/ml) are pre-incubated with SEB at variable concentrations (50 µl of 1 ng/ml, 0,1 ng/ml and 0.01 ng/ml) in the presence of variable concentrations of glycine (as above) for 24h, 48h and 72h or pre-incubated with glycine and subsequently stimulated with different concentrations of SEB.

[2] = test system: Peripheral mononuclear cells; settings: glycine 0.00004-40 mM, 14 days, interleukin-4 and anti-CD40
Description: To this end, peripheral mononuclear cells (as in example 1) were incubated with variable concentrations of glycine (0.00004mM, 0.0004mM, 0.004mM, 0.04mM, 0.4mM, 4mM, 40mM). The incubation time is carried out over 14 days. The cells were stimulated in the presence of glycine with interleukin-4 and anti-CD40 as B-cell activator. In the supernatant, the IgM, IgA, IgG and IgE synthesis was analysed.

[3] = test system: superantigen primed neutrophils
[4] = test system: Peripheral mononuclear cells (PMNs)
[5] = test system: Peripheral mononuclear cells (PMNs); remark: listed apart in the source
[6] = test system: lymphocytes, monocytes, basophils (LMBs)
[7] = test system: lymphocytes, monocytes, basophils (LMBs); remark: listed apart in the source
[8] = cells primed with GM-CSF, variable glycine, then NaF
[9] = glycine pre-incubation over 30 minutes

NCC(=O)O [glycine]
respiratory burst (Human neutrophils (PMN); glycine 0.04 mM, then fMLP): further modulation | oxygen metabolites (respiratory burst) (Human neutrophils (PMN); glycine 4.0, 0.4, 0.04 mM, 20 min at 37°C, no subsequent stimulation): no effect | respiratory burst (Human neutrophils (PMN); glycine pre-incubation, then NaF (20mM)): dose-dependent suppression and also an increase | respiratory burst (Human neutrophils (PMN); glycine pre-incubation, then PMA (10 ng)): No changes | LTB4 generation (Neutrophils (PMNs); [8]): inhibition | LTC4 generation (Neutrophils (PMNs); [8]): inhibition | LTB4 generation (Neutrophils (PMNs); cells primed with GM-CSF, variable glycine, then calcium ionophore): marginal increase | LTB4 release (Neutrophils (PMNs); cells primed with GM-CSF, variable glycine, then fMLP): fluctuating | fMLP-induced LTE4 generation (Neutrophils (PMNs); glycine 4.0 mM): suppressing influence | LTB4 release (Neutrophils (PMNs); [9]): increase | LTC4 release (Neutrophils (PMNs); [9]): suppression | omega-LTB4 release (Neutrophils (PMNs); [9]): increase | leukotriene-E4 (Neutrophils (PMNs); neutrophils activated with calcium ionophore in the presence of glycine): very strong suppression | LTB4 generation (Neutrophils (PMNs); neutrophils in the presence of glycine, fMLP): suppression | interferon-γ release ([1]; 48 hours glycine pre-incubation, subsequent RSV stimulation): intense increase | interferon-γ release ([1]; 48 hours glycine pre-incubation, subsequent SEB stimulation (Fig. 2), refers to intense increase): similarly indicated | interferon-γ release ([1]; RSV used instead of SEB): dose-dependent increase | interferon-γ release ([1]; SEB with glycine, incubation of up to 48 hours): Marginal effects | interferon-γ release ([1]; glycine pre-incubation over 72 hours, SEB as activator): increase | release of interferon-γ ([1]; glycine pre-incubation, subsequent SEB stimulation): extremely potent release | interferon-γ concentration ([1]; very long glycine pre-incubation and subsequent stimulation): reduction | induced IgE synthesis [2]: no affect | other immunoglobulins (IgM, IgA, IgG synthesis) [2]: no changes | 20-carboxy-LTB4 [3]: drop | LTC4 [3]: increase | cysteinyl leukotrienes [3]: increase | omega-LTB4 generation [3]: increase | release of 12-HETE [3]: increase | IL-8 release [4]: significant increase | interleukin-8 release ([4]; cells pre-incubated with interferon-γ, then staphylococcus enterotoxin B): dose-dependent stimulation | interleukin-8 release ([4]; staphylococcus enterotoxin B stimulation): marginal increase | TNF release ([5]; GM-CSF (10 ng) primed model, then SEB (10 ng)): suppression | TNF release ([5]; RSV as stimulus): modulation | TNF release ([5]; conditions of the interleukin-8 experiments): no significant changes | TNF ([5]; glycine 0.0004-0.4 mM pre-incubation, then SEB (10 ng)): dose-dependent increase | SEB-induced TNF release ([5]; glycine pre-incubation, then SEB): increase | TNF release ([5]; glycine pre-incubation, then SEB, in dependence on stimulus): suppression | TNF release ([5]; phospholipase C at variable concentrations as stimulus, 'also applies' refers to modulation): This also applies | interleukin-10 [6]: increase | release of interleukin-10 ([6]; glycine combined with staphylococcus enterotoxin B (Fig. 1)): significant release | SEB-induced TNF-α release [7]: marked suppression | TNF-α [7]: increase | phospholipase C induced TNF-α release [7]: great suppression | suppression of the TNF-α release [7]: lower | staphylococcus enterotoxin B induced TNF-α release ([7]; LMBs incubated with interferon-γ 24 hours, then SEB): great suppression | interleukin-12 release (LMBs; GM-CSF priming, glycine 2 hours, then SEB, eliminated with low glycine concentrations): marginal reduction | interleukin-12 release (LMBs; glycine incubation alone, low concentrations of glycine): stimulatory effect
